Like-named read-outs stand apart in the source and are kept apart here.
Key:
[1] = molecular target: T1, TRKB extracellular domain (TRKB-ECD) (Homo sapiens, UniProt Q16620); assay: Tryptophan fluorescence quenching assay; conditions: Pichia pastoris-expressed TRKB-ECD, 0–1000 nM, excitation 295 nm, emission 330 nm, room temperature; read-out: KD (TRKB-ECD binding affinity)
T1 construct: TRKB-ECD (marked in red, C^32-E^429, XP_016870240); His (C); made in house; host or cells: Pichia pastoris
Method: The interaction between the N-terminal extracellular domain of TRKB (TRKB-ECD) and 7,8-DHF (as positive control; [35]), ZN-015, VB-030 or VB-037 was evaluated with tryptophan fluorescence titration. TRKB-ECD-His protein was expressed in the Pichia expression system (Invitrogen) and purified as stated. Intrinsic tryptophan fluorescence spectra with titration of a different concentration of compounds (0–1000 nM) were recorded by fluorescence spectrophotometer F-7000 (Hitachi, Tokyo, Japan), with excitation wavelength 295 nm and emission wavelength in the range of 300–400 nm. The calculation of dissociation constant (KD) between the 7,8-DHF or ZN/VB compound and TRKB was described in a previous report.

[2] = molecular target: T1, TRKB extracellular domain (TRKB-ECD); parameters: method as in PMID 25143381; conditions: read-out: KD (TRKB-ECD binding affinity), reported value; cited from earlier work
MTT cell viability assay = assay type: cell-based; conditions: human
Method: Human neuroblastoma SH-SY5Y cells with inducible ΔK280 TauRD-DsRed expression were maintained in DMEM/F-12 supplemented with fetal bovine serum (FBS, 10%) (Thermo Scientific, Waltham, MA, USA), penicillin/streptomycin (100 U/mL), selection antibiotics hygromycin (100 μg/mL) and blasticidin (5 μg/mL) (InvivoGen, San Diego, CA, USA), and 1.5 g/l sodium bicarbonate. Cells were cultured at 37 °C in a 5% CO2 atmosphere. The cell viability of ZN and VB compounds (concentration range: 0.1–100 μM) was evaluated by a 3-(4,5-dimethylthiazol-2-yl)-2,5-diphenyltetrazolium bromide (MTT; Sigma-Aldrich) colorimetric assay. The absorbance at 570 nm was recorded by a Multiskan™ GO Microplate Spectrophotometer (Thermo Scientific).

[3] = Cell number / cell survival in induced ΔK280 TauRD-DsRed SH-SY5Y cells (high-content); assay type: cell-based, human; conditions: human; induced SH-SY5Y cells expressing ΔK280 TauRD-DsRed for 6 days, 2–10 μM tested; read-out: IC50 cytotoxicity based on cell number
Method: (§1) ΔK280 TauRD-DsRed SH-SY5Y cells were plated in the presence of 10 μM retinoid acid (RA; Sigma-Aldrich) to promote neuronal differentiation. The next day, cells were added with congo red or ZN/VB compounds (2–10 μM) for 8 h pretreatment, followed by inducing ΔK280 TauRD-DsRed expression with doxycycline (2 μg/mL). On day 8, cell nuclei were stained with Hoechst 33342 (0.1 μg/mL; Thermo Scientific), and cell images acquired using ImageXpress Micro Confocal High-Content Imaging System (Molecular Devices, San Jose, CA, USA) with DAPI (4′,6-diamidino-2-phenylindole, for nuclei) and TRITC (tetramethylrhodamine, for DsRed) fluorescence filter sets. To detect ROS changes, 10 μM compound-treated cells were stained with Hoechst 33342 and 2′,7′-dichlorodihydrofluorescein diacetate (H2DCFDA, 10 μM) fluorescein (Invitrogen, Carlsbad, CA, USA), and cell images captured using DAPI and FITC (fluorescein isothiocyanate, for DCF) filters. For assessing differential neurite outgrowth, 10 μM compound-treated cells were fixed (paraformaldehyde, 4%), permeabilized (Triton X-100, 0.3%), and stained with class III β-tubulin (TUBB3, 1:1000) primary antibody (#802001, BioLegend, San Diego, CA, USA), followed by donkey anti-rabbit Alexa Fluor® 555 secondary antibody (1:1000; #A-31572, Invitrogen) and DAPI (0.1 μg/mL; Sigma-Aldrich) stains. The nuclei and neurite images were acquired with DAPI and TRITC fluorescence filters, respectively. All analyses of images were performed using MetaXpress software (Molecular Device).

[4] = molecular target: T2, E. coli-expressed ΔK280 TauRD protein (Homo sapiens, UniProt P10636, DEL597-597); assay: Thioflavin T fluorescence ΔK280 TauRD aggregation assay; assay type: biochemical; conditions: TauRD protein 20 μM, 48 h at 37 °C; read-out: EC50 inhibiting ΔK280 TauRD aggregation
T2 construct: TauRD (Q^244-E^372 of Tau, NP_005901) aggregation; N-terminal Met (N); made in house; host or cells: E. coli
Method: The anti-aggregation activity of congo red (positive control) and ZN/VB compounds (5–20 μM) was assessed using E. coli-expressed ΔK280 TauRD protein [33] and thioflavin T (Sigma-Aldrich) fluorescence assay. The trend of ΔK280 TauRD amyloid aggregate formation depicted with enhanced and red-shifted fluorescence was recorded by a FLx800 microplate fluorescence reader (BioTek Instruments), where the procedure was previously reported in detail.

[5] = tested on: SH-SY5Y cells expressing ΔK280 TauRD-DsRed; assay: Cell number / cell survival in induced ΔK280 TauRD-DsRed SH-SY5Y cells (high-content); assay type: cell-based, human; conditions: induced ΔK280 TauRD-DsRed SH-SY5Y, 2–10 μM
Method: as §1

[6] = DPPH free-radical scavenging assay; assay type: physicochemical; conditions: 10–160 μM, compared to kaempferol
Method: Free-radical scavenging activity of kaempferol (positive control) and ZN/VB compounds (10–160 μM) was measured using a 1,1-diphenyl-2-picrylhydrazyl (DPPH; Sigma-Aldrich) photometric assay as stated. The absorbance at 517 nm was assessed by a Multiskan™ GO Microplate Spectrophotometer (Thermo Scientific). An oxygen radical absorbance capacity (ORAC) assay of kaempferol and ZN/VB compounds (4–100 μM) was conducted according to the manufacturer’s instructions (OxiSelect™; Cell Biolabs, San Diego, CA, USA). The decrease of fluorescence intensity was monitored by a FLx800 microplate fluorescence reader (BioTek Instruments, Winooski, VT, USA). The ORAC activity was quantified as a trolox-equivalent antioxidant capacity.

[7] = tested on: ROS in ΔK280 TauRD-DsRed SH-SY5Y cells; assay: High-content assessment of cellular ROS (H2DCFDA); assay type: cell-based, human; conditions: 10 μM; uninduced = 100%, induced untreated 123%; range over compounds
Method: as §1, with “For assessing differential neurite outgrowth, 10 μM compound-treated cells were fixed (paraformaldehyde, 4%), permeabilized (Triton X-100, 0.3%), and stained with class III β-tubulin (TUBB3, 1:1000) primary antibody (#802001, BioLegend, San Diego, CA, USA), followed by donkey anti-rabbit Alexa Fluor® 555 secondary antibody (1:1000; #A-31572, Invitrogen) and DAPI (0.1 μg/mL; Sigma-Aldrich) stains.” left out, “All analyses of images were performed using MetaXpress software (Molecular Device).” left out

ΔK280 TauRD-DsRed = molecular target: T3, ΔK280 TauRD-DsRed (Homo sapiens, UniProt P10636, DEL597-597); assay: High-content DsRed fluorescence assay of ΔK280 TauRD-DsRed folding reporter cells; assay type: cell-based; conditions: 10 μM; untreated cells = 100%; 8 h pretreatment, 6 day Dox induction
T3 construct: TauRD (Q^244-E^372 of Tau, NP_005901) aggregation; expressed in transfected cells; host or cells: SH-SY5Y (Tet-On, doxycycline-inducible)
Method: as §1, with “For assessing differential neurite outgrowth, 10 μM compound-treated cells were fixed (paraformaldehyde, 4%), permeabilized (Triton X-100, 0.3%), and stained with class III β-tubulin (TUBB3, 1:1000) primary antibody (#802001, BioLegend, San Diego, CA, USA), followed by donkey anti-rabbit Alexa Fluor® 555 secondary antibody (1:1000; #A-31572, Invitrogen) and DAPI (0.1 μg/mL; Sigma-Aldrich) stains.” left out, “All analyses of images were performed using MetaXpress software (Molecular Device).” left out

T1 sequence (Q16620 32-429): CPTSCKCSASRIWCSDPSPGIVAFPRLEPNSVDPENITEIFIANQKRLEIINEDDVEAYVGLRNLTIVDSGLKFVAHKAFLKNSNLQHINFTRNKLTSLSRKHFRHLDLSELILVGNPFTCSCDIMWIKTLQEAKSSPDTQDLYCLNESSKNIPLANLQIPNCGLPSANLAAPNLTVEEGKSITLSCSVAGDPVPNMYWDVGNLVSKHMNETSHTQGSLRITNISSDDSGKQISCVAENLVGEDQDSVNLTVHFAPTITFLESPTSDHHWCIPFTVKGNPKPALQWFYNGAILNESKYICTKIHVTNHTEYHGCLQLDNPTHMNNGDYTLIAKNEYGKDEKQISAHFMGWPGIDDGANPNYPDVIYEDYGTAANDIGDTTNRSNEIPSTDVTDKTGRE
T2 sequence (P10636 with tags, fused parts or gaps isoform P10636-8 DEL280-280): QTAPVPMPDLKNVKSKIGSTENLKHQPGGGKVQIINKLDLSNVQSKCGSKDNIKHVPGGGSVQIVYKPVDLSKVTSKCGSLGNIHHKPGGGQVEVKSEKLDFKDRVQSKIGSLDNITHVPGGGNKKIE
T3 sequence (P10636 with tags, fused parts or gaps isoform P10636-8 DEL280-280): as above

Kd [1] | EC50 [4] | Structure (SMILES) | IC50 at 24 h (MTT cell viability assay) | IC50 at 6 days [3] | other results
0.0134 ± 0.0084 µM |  | O=c1cc(-c2ccccc2)oc2c(O)c(O)ccc12 [7,8-DHF, 7,8-dihydroxy flavone, reference compound] |  |  | Kd [2]: 0.0121 ± 0.0016 µM
 |  | Cc1ccc2[nH]c(=O)c(C(=O)/C=C/c3nc4ccccc4[nH]3)c(-c3ccccc3)c2c1 [VB-031, (E)-3-(3-(1H-benzo[d]imidazol-2-yl)acryloyl)-6-methyl-4-phenylquinolin-2(1H)-one] | 6 µM | < 2 µM | percentage of cell survival [5]: less than 75%
0.0043 ± 0.0052 µM | 13.1 µM | O=[N+]([O-])c1cccc2nc(/C=C/c3cc4ccccc4nc3N3CCOCC3)ccc12 [VB-037, (E)-4-(3-(2-(5-nitroquinolin-2-yl)vinyl)quinolin-2-yl)morpholine] | > 100 µM | 23 µM | DPPH free radical scavenging activity [6]: very weak DPPH free radical scavenging activity; ROS level (DCF fluorescence) [7]: no effect on reducing ROS
 |  | O=C(Nc1cccc(S(=O)(=O)NC2=NCCCCC2)c1)c1cc(-c2ccncc2)nc2ccccc12 [VB-041, 2-(pyridin-4-yl)-N-(3-(N-(3,4,5,6-tetrahydro-2H-azepin-7-yl)sulfamoyl)phenyl)quinoline-4-carboxamide] | > 100 µM | > 10 µM | 
 |  | O=C(O)COc1cc(O)c2c(=O)cc(-c3ccccc3)oc2c1 [ZN-006, 2-((5-hydroxy-4-oxo-2-phenyl-4H-chromen-7-yl)oxy)acetic acid] | > 100 µM | > 10 µM | 
 |  | COc1cccc2oc(C(=O)c3ccccc3)cc12 [ZN-013, (4-methoxybenzofuran-2-yl)(phenyl)methanone] | > 100 µM | 27 µM | 
 |  | CCOC(=O)c1cc2c(O)cccc2oc1=O [ZN-014, ethyl 5-hydroxy-2-oxo-2H-chromene-3-carboxylate] |  | > 10 µM | IC50 at 24 h (MTT cell viability assay; uninduced ΔK280 TauRD-DsRed SH-SY5Y, 0.1–100 μM, 24 h, read-out: IC50 cytotoxicity (MTT)): > 100 µM
 | 13.9 µM | Nc1c(/N=N/c2ccc(-c3ccc(/N=N/c4cc(S(=O)(=O)O)c5ccccc5c4N)cc3)cc2)cc(S(=O)(=O)O)c2ccccc12 [congo red, Congo red, reference compound] |  | > 10 µM | DsRed fluorescence (ΔK280 TauRD-DsRed): 114%

Structure (SMILES) | Kd [1] | EC50 [4] | IC50 at 24 h (MTT cell viability assay) | IC50 at 6 days [3] | other results
Cc1ccc(-c2cc(-c3ccncc3)nc3ccccc23)cc1 [VB-030, 2-(pyridin-4-yl)-4-(p-tolyl)quinoline] | 0.011 ± 0.0024 µM | 20.3 µM | > 100 µM | > 10 µM | 
